Entries after “also recorded” stand apart in the source; their conditions may differ.
Legend:
[1] = tested on: differentiated otic epithelium islands from stem cells isolated from the postnatal organ of Corti; experiment: In vitro cell culture assay: BrdU-positive cells (proliferation), screening and dose/activity analysis; format: cell-based, mouse
Procedure: (§1) First, starting with stem cells with otic development potential isolated from the postnatal organ of Corti of the mouse, typical cellular cluster “spheres” were grown in a suspension culture. Under culture conditions optimized compared to known processes (Oshima et al., 2007; Senn et al., 2007) in a DMEM/F12 medium (Dulbecco's Modified Eagle Medium) supplemented with B27 and N2, about 1600 solid spheres per organ of Corti could be generated from the stem cell culture with added FGF (fibroblast growth factor) and IGF (insulin-like growth factor) (FIG. 1H).
(§2) To this end, the cultivated otospheres were differentiated in a second step under adherent culture conditions on an ornithine/fibronectin surface to give monolayer epithelium islands relatively similar to the original sensory epithelium.
If the expression of stem cell markers induced by the compounds is in the end also associated with an increased proliferation of the cells in culture was checked by quantification of the BrdU-positive cells. During substance administration the culture was incubated for 5 h with the thymidine analog BrdU. During the S phase of the cell cycle, cell division results in incorporation of BrdU. If one of the substances stimulates cell division, this can be detected and visualized with an antibody directed against BrdU.
In a dose/activity analysis, the optimum concentration range in which this compound unfolds its maximum regeneration biological effect in the cell culture was determined.
To this end, incorporation of BrdU in the stem cell-based in vitro cell culture assay was determined at 4 concentrations between 0.3 μM and 10 μM in the culture medium. […] From a concentration of 3 μM, the saturation level of about 9% BrdU-positive cells is already reached (FIG. 5).

[2] = tested on: differentiated otic epithelium islands from stem cells isolated from the postnatal organ of Corti; experiment: In vitro cell culture assay: proportion of Sox2-positive cells (dedifferentiation); format: cell-based, mouse; details: screening assay, FIG. 3; p<0.05, n=10
Procedure: as §1, §2
For screening, firstly the proportion of Sox2-positive cells in the in vitro culture was determined. Sox2 is a stem cell marker, which is also expressed during ontogenesis of the organ of Corti. It is thought to have an important role in the pluripotency of embryonal stem cells and during induction of pluripotent stem cells from differentiated cells (Takahashi and Yamanaka, 2006). Accordingly, Sox2 is an important marker, in particular in the context of an induced dedifferentiation/reprogramming of cells.

[3] = tested on: organ of Corti; experiment: In vivo administration after acoustic trauma: regeneration of sensory hair cells (BrdU, myosin VI, DAPI, Sox2 labelling); details: adult guinea pig, impulse noise damage, 200 μM in Alzet pump intracochlear over 6 weeks, FIG. 7
Source text: Acute acoustic damage resulting in a loss of sensory hair cells of the organ of Corti, in particular in the region of the outer sensory hair cells, was caused by impulse noise. The compound N-cyclohexyl-2-[1-amino-2-(1H-indol-3-yl)ethyl]α-azole-4-carboxylic acid amide (3) was then continuously administered locally from a miniosmotic pump (Alzet®), subcutaneously implanted, via choleostomy directly into the scala tympani of the cochlea. The dosage of the substance in the pump was correspondingly higher at 200 μM, taking into account an expected dilution effect in the perilymph.
Administration was over a period of 6 weeks, with a subsequent waiting interval of 2 weeks. In parallel, BrdU was administered via the drinking water or the miniosmotic pump to label proliferating cells in the organ of Corti.
After removal of the organ of Corti, immunohistochemical triple labelling with BrdU (cell division), myosin VI (sensory hair cells) and DAPI (staining of the nuclei) FIGS. 7A to 7E and also with Sox2 (pluripotent supportive cells) was carried out.

[4] = tested on: supportive cells of the organ of Corti; experiment: In vitro organ culture model: BrdU incorporation after neomycin damage; format: cell-based, mouse; details: 5 μM, 4 days, after neomycin (1 mM) damage, FIG. 6
Source text: To confirm the effects observed in the cell culture assay in the native organ, i.e., in situ in the complex cellular structure of the organ of Corti, use was made of a form of organ culture where the tissue to be cultivated, in the present case the entire inner ear of the mouse, was located in a rotating cylinder filled with culture medium (Hahn et al., 2008). Before the start of the experiment, the cochlea was opened basally and apically in the region of the scala tympani. In this manner, it was possible to minimize the effect of gravity and at the same time to achieve optimum gas and nutrient exchange between the tissue of the organ of Corti and the culture medium. Under these conditions, the explantate could be kept in culture for longer compared to a stationary culture.
(§3) After administration of the ototoxic aminoglycoside antibiotic neomycin (1 mM), ⅔of all sensory hair cells suffered cell death within 24 hours. Only in the apical regions of the cochlea, some sensory hair cells survived, the number of which declined further during the course of the experiment as a result of the initial damage. After removal of the neomycin from the medium, the remaining supportive cells could be cultivated further.
BrdU was then added to the culture medium simultaneously with the compounds (5 μM), and after 4 days the proliferation was quantified by BrdU incorporation.

[5] = tested on: sensory hair cells; experiment: Ototoxic damage of sensory hair cells in organ culture; format: cell-based, mouse; details: 1 mM, within 24 hours
Procedure: as §3

| Compound | BrdU incorporation in dose/activity analysis ([1]; 0.3 μM in culture medium, FIG. 5) | BrdU incorporation in dose/activity analysis ([1]; 1 μM in culture medium, FIG. 5) | BrdU incorporation when concentration increased from 0.3 μM to 3 μM ([1]; adhesion culture, p<0.05, n=10, FIG. 5) | BrdU incorporation at concentrations higher than 3 μM ([1]; adhesion culture, up to 10 μM, FIG. 5) | BrdU-positive cells, saturation level in dose/activity analysis ([1]; from 3 μM in culture medium, FIG. 5) | proportion of BrdU-positive cells (induced proliferation) ([1]; screening assay, 5 h incubation with BrdU, FIG. 4) [%] | BrdU incorporation, result in words ([1]; screening assay, 5 h incubation with BrdU, p<0.05, n=10) | proportion of Sox2-expressing cells compared with the differentiation control [2] | regeneration of sensory hair cells based on cell division (BrdU labelling) [3] | BrdU incorporation into supportive cells (proliferation) [4] | BrdU incorporation into supportive cells (proliferation) ([4]; listed as substance 33) | proportion of all sensory hair cells that suffered cell death [5] |
| --- | --- | --- | --- | --- | --- | --- | --- | --- | --- | --- | --- | --- |
| N[C@@H](Cc1c[nH]c2ccccc12)c1nc(C(=O)NC2CCCCC2)co1 [Compound 3, N-cyclohexyl-2-[1-amino-2-(1H-indol-3-yl)ethyl]oxazole-4-carboxylic acid amide] | no significant effect | the mean was already elevated | increased to a significantly higher level | could not be increased any further | about 9% | 4.8 | significant positive results | more than doubled; also recorded: significant positive results | BrdU-labelled supportive cells and sensory hair cells were preferably demonstrated in the regions of the organ of Corti damaged by acoustic trauma; also recorded: regeneration of sensory hair cells on the basis of cell divisions can be induced | BrdU incorporation could be demonstrated in the furthest laterally orientated Deiter's cells; also recorded: new cells in the sense of a regeneration by cell division of supportive cells have been formed; also recorded: BrdU was incorporated into laterally orientated Deiter's cells | BrdU was incorporated into individual inner phalangeal cells and inner border cells | – |
| neomycin | – | – | – | – | – | – | – | – | – | – | – | ⅔ |

From patent US8889723B2, “Aminoalkyloxazole and aminoalkylthiazolecarboxylic acid amides as regeneration-promoting substances for sensory organs and post-mitotic tissues” (EMC microcollections GmbH, priority 2010, dated 2014)
